Results on 27 molecules are retold here after paper PMC12346557, “Design, Synthesis, and Anticancer Evaluation of New Small-Molecule EGFR Inhibitors Targeting NSCLC and Breast Cancer” (International Journal of Molecular Sciences, 2025).

Test [1] deals with A549 cells. The experiment in a line: MTT cytotoxicity assay, A549 cells. The settings on record: triplicate; for IC50: Homo sapiens, A549, 72 h culture, 1-100 µM; for reduction of A549 cell viability: 100 µM, 72 h. The format is cell-based, human.
The test system of test [2] is Jurkat cells. Description: MTT cytotoxicity assay, Jurkat cells. The settings on record: for IC50: Homo sapiens, Jurkat, MTT. The format is cell-based, human. How it is done:
A549 and MCF-7 human cancer cell lines were cultured in Dulbecco’s Modified Eagle’s Medium (DMEM) (Wako Pure Chemical Industries, Osaka, Japan) supplemented with 10% fetal bovine serum (FBS) (Equitech-Bio, Kerrville, TX, USA). […] All media were supplemented with 89 μg/mL of streptomycin (Meiji Seika Pharma, Tokyo, Japan). […] Cancer cells and PBMCs were seeded into 24-well and 96-well microtiter tissue culture plates (Iwaki, Asahi Glass Co., Chiba, Japan) at densities of 4 × 10^4 cells/mL and 5 × 10^5 cells/mL, respectively, and incubated for 72 h prior to drug treatment. The optimal seeding density for cytotoxicity assays was determined through preliminary testing. […] The cellular reduction MTT (Dojindo Molecular Technologies, Kumamoto, Japan) was assessed following established protocols from the literature, with slight modifications.

The test system of test [3] is MCF-7 cells. The experiment in a line: MTT cytotoxicity assay, MCF-7 cells. The format is cell-based. To be noted: Homo sapiens, triplicate; for inhibition at 100 µM: MCF7, 100 µM, 72 h; for IC50: MCF7, 72 h culture, 1-100 µM.
For test [4], the system named is EGFR. The settings on record: cited from earlier work; for IC50: Figure 3, read-out: EGFR inhibition: IC50; for EGFR inhibition: Figure 3, concentration not given, ref 36 (7), 11 (11).
For test [5], the system named is MCF-7 cells. Also noted: method as in ref 31 (1), 32 (2), 33 (3), 35 (6), 37 (8), 38 (9), 39 (10), 11 (11). The settings on record: Figure 3; ref 31 (1), 32 (2), 33 (3), 35 (6), 37 (8), 38 (9), 39 (10), 11 (11); cited from earlier work.
Test [6] deals with A549 cells. Also noted: method as in ref 33 (3), 34 (4, 5), 36 (7), 38 (9), 39 (10), 11 (11). To be noted: Figure 3; ref 33 (3), 34 (4, 5), 36 (7), 38 (9), 39 (10), 11 (11); cited from earlier work.
For test [7], the system named is PBMCs. Description: MTT cytotoxicity assay, PBMCs (healthy). The test is classed as cell-based. The settings on record: PBMC. As for the experimental part: A549 and MCF-7 human cancer cell lines were cultured in Dulbecco’s Modified Eagle’s Medium (DMEM) (Wako Pure Chemical Industries, Osaka, Japan) supplemented with 10% fetal bovine serum (FBS) (Equitech-Bio, Kerrville, TX, USA). Jurkat cells, derived from human leukemia, were maintained in RPMI 1640 medium (Wako Pure Chemical Industries) with 10% FBS. PBMCs (Precision Bioservices, Frederick, MD, USA) were cultured in RPMI 1640 medium supplemented with 10% human AB serum (HS) (Gemini, Woodland, CA, USA). All media were supplemented with 89 μg/mL of streptomycin (Meiji Seika Pharma, Tokyo, Japan). Cells were incubated at 37 °C in a humidified atmosphere containing 95% air and 5% CO2. Cancer cells and PBMCs were seeded into 24-well and 96-well microtiter tissue culture plates (Iwaki, Asahi Glass Co., Chiba, Japan) at densities of 4 × 10^4 cells/mL and 5 × 10^5 cells/mL, respectively, and incubated for 72 h prior to drug treatment. The optimal seeding density for cytotoxicity assays was determined through preliminary testing. […] The cellular reduction MTT (Dojindo Molecular Technologies, Kumamoto, Japan) was assessed following established protocols from the literature, with slight modifications.

Where [8] appears, read: ref 31 (1), 33 (3), 35 (6), 37 (8), 38 (9), 39 (10).

Where two headings read alike, the source gives them in different places.

For the molecule `Cc1ccc(C2=NN(c3nc(-c4ccccc4)cs3)C(c3cnc(-c4ccc(Cl)cc4)nc3)C2)cc1` (centres unmarked) [BP-1, 1-(4-Phenylthiazol-2-yl)-3-(4-methylphenyl)-5-(2-(4-chlorophenyl)pyrimidin-5-yl)-2-pyrazoline], the IC50 in test [1] is over 100 µM; in test [2] it was over 100 µM; in test [3], 91.6 ± 10.2 µM. Moreover, in test [3], the inhibition at 100 µM was in the range of 27 to 53%.
Regarding `Cc1ccc(C2=NN(c3nc(-c4ccc([N+](=O)[O-])cc4)cs3)C(c3cnc(-c4ccc(Cl)cc4)nc3)C2)cc1` (centres unmarked) [BP-2, 1-(4-(4-Nitrophenyl)thiazol-2-yl)-3-(4-methylphenyl)-5-(2-(4-chlorophenyl)pyrimidin-5-yl)-2-pyrazoline], the inhibition at 100 µM in test [3] lay in the range of 27 to 53%.
Consider `Cc1ccc(C2=NN(c3nc(-c4ccc(F)cc4)cs3)C(c3cnc(-c4ccc(Cl)cc4)nc3)C2)cc1` (centres unmarked) [BP-3, 1-(4-(4-Fluorophenyl)thiazol-2-yl)-3-(4-methylphenyl)-5-(2-(4-chlorophenyl)pyrimidin-5-yl)-2-pyrazoline], for which, in test [3], the inhibition at 100 µM was in the range of 27 to 53%.
For the molecule `Cc1ccc(C2=NN(c3nc(-c4ccc(Cl)cc4)cs3)C(c3cnc(-c4ccc(Cl)cc4)nc3)C2)cc1` (centres unmarked) [BP-4, 1-(4-(4-Chlorophenyl)thiazol-2-yl)-3-(4-methylphenyl)-5-(2-(4-chlorophenyl)pyrimidin-5-yl)-2-pyrazoline], in test [3], the inhibition at 100 µM fell in the range of 27 to 53%.
Consider `Cc1ccc(C2=NN(c3nc(-c4ccc(Br)cc4)cs3)C(c3cnc(-c4ccc(Cl)cc4)nc3)C2)cc1` (centres unmarked) [BP-5, 1-(4-(4-Bromophenyl)thiazol-2-yl)-3-(4-methylphenyl)-5-(2-(4-chlorophenyl)pyrimidin-5-yl)-2-pyrazoline], for which the “reduction of A549 cell viability” value in test [1] came to 21%. The molecule also showed an inhibition at 100 µM in test [3] of 27 to 53%.
Regarding `Cc1ccc(C2=NN(c3nc(-c4ccc(C#N)cc4)cs3)C(c3cnc(-c4ccc(Cl)cc4)nc3)C2)cc1` (centres unmarked) [BP-6, 1-(4-(4-Cyanophenyl)thiazol-2-yl)-3-(4-methylphenyl)-5-(2-(4-chlorophenyl)pyrimidin-5-yl)-2-pyrazoline], the inhibition at 100 µM in test [3] was in the range of 27 to 53%.
Turning to `Cc1ccc(C2=NN(c3nc(-c4ccc(C(F)(F)F)cc4)cs3)C(c3cnc(-c4ccc(Cl)cc4)nc3)C2)cc1` (centres unmarked) [BP-7, 1-(4-(4-Trifluoromethylphenyl)thiazol-2-yl)-3-(4-methylphenyl)-5-(2-(4-chlorophenyl)pyrimidin-5-yl)-2-pyrazoline], the “reduction of A549 cell viability” value in test [1] worked out at 33%. For the same molecule, the inhibition at 100 µM in test [3] fell in the range of 27 to 53%.
Molecule `COc1ccc(C2=NN(c3nc(-c4ccccc4)cs3)C(c3cnc(-c4ccc(Cl)cc4)nc3)C2)cc1` (centres unmarked) [BP-8, 1-(4-Phenylthiazol-2-yl)-3-(4-methoxyphenyl)-5-(2-(4-chlorophenyl)pyrimidin-5-yl)-2-pyrazoline] had an inhibition at 100 µM in test [3] of 27 to 53%.
On the same count and under the same terms, the value for `COc1ccc(C2=NN(c3nc(-c4ccc([N+](=O)[O-])cc4)cs3)C(c3cnc(-c4ccc(Cl)cc4)nc3)C2)cc1` (centres unmarked) [BP-9, 1-(4-(4-Nitrophenyl)thiazol-2-yl)-3-(4-methoxyphenyl)-5-(2-(4-chlorophenyl)pyrimidin-5-yl)-2-pyrazoline] was 27 to 53%.
Consider `COc1ccc(C2=NN(c3nc(-c4ccc(F)cc4)cs3)C(c3cnc(-c4ccc(Cl)cc4)nc3)C2)cc1` (centres unmarked) [BP-10, 1-(4-(4-Fluorophenyl)thiazol-2-yl)-3-(4-methoxyphenyl)-5-(2-(4-chlorophenyl)pyrimidin-5-yl)-2-pyrazoline], for which the IC50 in test [1] was over 100 µM; in test [2], over 100 µM; in test [3], 76 ± 9.91 µM. In test [3], this molecule showed an inhibition at 100 µM of 27 to 53%.
Turning to `COc1ccc(C2=NN(c3nc(-c4ccc(Br)cc4)cs3)C(c3cnc(-c4ccc(Cl)cc4)nc3)C2)cc1` (centres unmarked) [BP-12, 1-(4-(4-Bromophenyl)thiazol-2-yl)-3-(4-methoxyphenyl)-5-(2-(4-chlorophenyl)pyrimidin-5-yl)-2-pyrazoline], in test [3], the inhibition at 100 µM fell in the range of 27 to 53%.
Consider `COc1ccc(C2=NN(c3nc(-c4ccc(C#N)cc4)cs3)C(c3cnc(-c4ccc(Cl)cc4)nc3)C2)cc1` (centres unmarked) [BP-13, 1-(4-(4-Cyanophenyl)thiazol-2-yl)-3-(4-methoxyphenyl)-5-(2-(4-chlorophenyl)pyrimidin-5-yl)-2-pyrazoline], for which the inhibition at 100 µM in test [3] fell in the range of 27 to 53%.
Still for that read-out and setting: the value for `COc1ccc(C2=NN(c3nc(-c4ccc(C(F)(F)F)cc4)cs3)C(c3cnc(-c4ccc(Cl)cc4)nc3)C2)cc1` (centres unmarked) [BP-14, 1-(4-(4-Trifluoromethylphenyl)thiazol-2-yl)-3-(4-methoxyphenyl)-5-(2-(4-chlorophenyl)pyrimidin-5-yl)-2-pyrazoline] was 27 to 53%.
In the case of `Cc1ccc(C2=NN(c3nc(-c4ccc(Cl)cc4)cs3)C(c3ccc(F)cc3)C2)cc1C` (centres unmarked) [Compound 1], the IC50 in test [4] (setting [8]) was 0.06 µM; in test [5] it was 0.07 µM.
Regarding `COc1ccc2nc(Cl)c(C3CC(c4ccc(C)cc4)=NN3c3nc(-c4ccc(F)cc4)cs3)cc2c1` (centres unmarked) [Compound 2], the IC50 in test [4] (ref 32 (2), 34 (4, 5)) is 0.0318 µM; in test [5], 0.227 µM.
As for `N#Cc1ccc(-c2csc(N3N=C(c4ccc(N5CCOCC5)cc4)CC3c3ccc(Cl)cc3)n2)cc1` (centres unmarked) [Compound 3], the IC50 in test [4] (setting [8]) is 4.34 µM; in test [6] it was 10.8 µM; in test [5], 8.05 µM.
For the molecule `CCOC(=O)c1sc(N2N=C(c3ccc(Cl)cc3Cl)CC2c2ccc(OC)cc2)nc1C` (centres unmarked) [Compound 4], the IC50 in test [4] (ref 32 (2), 34 (4, 5)) is 0.0407 µM; in test [6], 4.22 µM.
Regarding `COc1ccc(C2CC(c3ccc(Cl)cc3Cl)=NN2c2nc(C)c(C(=O)Nc3ccccc3)s2)cc1OC` (centres unmarked) [Compound 5], the IC50 in test [4] (ref 32 (2), 34 (4, 5)) is 0.0325 µM; in test [6], 2.92 µM.
As to `COc1ccc(C2CC(c3ccc(OC)c(OC)c3)=NN2c2nc(-c3ccccc3)cs2)cc1` (centres unmarked) [Compound 6], the IC50 in test [4] (setting [8]) is 0.009 µM; in test [5] it was 7.21 µM.
For the molecule `Clc1ccc(C2CC(c3ccc4ccccc4c3)=NN2c2nc(-c3ccc(Br)cc3)cs2)cc1` (centres unmarked) [Compound 7], the EGFR inhibition in test [4] is 58%. Also, the IC50 in test [6] was 9.51 µM.
For the molecule `CCc1nnc2c(Nc3ccc(C(=O)/C=C/c4ccc(OC)cc4)cc3)nc3ccccc3n12` [Compound 8], the IC50 is 0.083 ± 0.04 µM in test [4] (setting [8]) and 8.23 ± 0.25 µM in test [5].
Turning to `Cn1c(=O)c2[nH]c(SCC(=O)Nc3ccc(C(=O)/C=C/c4ccc(Cl)cc4)cc3)nc2n(C)c1=O` [Compound 9], the IC50 in test [6] is 1.8 ± 0.7 µM; in test [5], 1.3 ± 0.9 µM.
Turning to `C=CCn1c(SCC(=O)Nc2ccc(C(=O)/C=C/c3ccc(Cl)cc3)cc2)nnc1-c1cc(-c2ccccc2)nc2ccccc12` [Compound 10], the results for the IC50 in test [4] (setting [8]), in test [6] and in test [5] were 1.3 ± 1.2 µM, 3.6 ± 0.05 µM and 3.3 ± 0.08 µM, respectively.
For `COc1ccc(C(=O)/C=C/c2cnc(-c3ccc(Cl)cc3)nc2)cc1OC` [Compound 11], the EGFR inhibition in test [4] was 46%. Besides, the IC50 in test [6] is 20.5 ± 2.7 µM; in test [5], 6.7 ± 1.02 µM.
On to `Cc1ccc(C2=NN(C(N)=S)C(c3cnc(-c4ccc(Cl)cc4)nc3)C2)cc1` (centres unmarked) [Compound B-6, 3-(4-Methylphenyl)-5-(2-(4-chlorophenyl)pyrimidin-5-yl)-1-thiocarbamoyl-2-pyrazoline], for which the “reduction of A549 cell viability” value in test [1] stood at 44%. Besides, the IC50 is over 100 µM in test [1], 15.1 ± 2.85 µM in test [2], 6.52 ± 0.97 µM in test [3] and 113 ± 15.1 µM in test [7]. The “SI (Selectivity Index)” value in test [2] (IC50 for PBMC/IC50 for Jurkat cell line) was found to be 7.49. In test [3], this molecule returned an inhibition at 100 µM of 79%.
With `COc1ccc(C2=NN(C(N)=S)C(c3cnc(-c4ccc(Cl)cc4)nc3)C2)cc1` (centres unmarked) [Compound B-7, 3-(4-methoxyphenyl)-5-(2-(4-chlorophenyl)pyrimidin-5-yl)-1-thiocarbamoyl-2-pyrazoline], the “reduction of A549 cell viability” value in test [1] stood at 35%. In addition, the inhibition at 100 µM in test [3] is 39%.
Consider `CS(=O)(=O)CCNCc1ccc(-c2ccc3ncnc(Nc4ccc(OCc5cccc(F)c5)c(Cl)c4)c3c2)o1` [Lapatinib, lapatinib, reference compound], for which, in test [7], it took 11 ± 2.47 µM to reach half-maximal inhibition (IC50).
